In PubChem BioAssay AID1259408 (Genetic Toxicology Data Bank (GENE-TOX), 2018):
Calls of active or inactive are those of the source. No rule for the calls is given here.

Test system: GENE-TOX genotoxicity assays, various organisms and cells
Test: GENE-TOX mutagenicity studies
Conditions: for call: Assay Type: In vivo carcinogenicity studies, Assay Code: CCG+L
Excerpt: GENE-TOX provides genetic toxicology (mutagenicity) test data from expert peer review of open scientific literature for more than 3,000 chemicals from the United States Environmental Protection Agency (EPA). GENE-TOX was established to select assay systems for evaluation, review data in the scientific literature, and recommend proper testing protocols and evaluation procedures for these systems.
GENE-TOX covers the years 1991 - 1998. It is no longer updated.
This is an archive assay for GENE-TOX mutagenicity studies.

[1] = Species/Cell Type: Escherichia coli polA (W3119 vs P3478), Assay Type: Rec-assay, DNA effects (bacterial DNA repair), Assay Code: RE1T, Evaluation Type: Evaluation A (Pre-1980)
[2] = Species/Cell Type: Saccharomyces cerevisiae, Assay Type: Mitotic recombination or gene conversion, Assay Code: YEH-, Evaluation Type: Evaluation A (Pre-1980)
[3] = Species/Cell Type: Nonhuman, Evaluation Type: Evaluation A (Pre-1980)
[4] = Species/Cell Type: Nonhuman, Assay Type: Sister-chromatid exchange (SCE) in vitro, Assay Code: SC2+, Evaluation Type: Evaluation B (Post-1980)
[5] = Species/Cell Type: Syrian hamster embryo (SHE) cells, Assay Type: Cell transformation, clonal assay, Assay Code: CTC+, Evaluation Type: Evaluation A (Pre-1980)

For CCOP(=S)(OCC)Oc1ccc([N+](=O)[O-])cc1, the mutagenic call (Species/Cell Type: Allium cepa, Assay Type: Chromosome aberrations, Assay Code: ALC+D, Dose Response: With dose response, Evaluation Type: Evaluation A (Pre-1980)) was “active; positive”, the mutagenic call (Species/Cell Type: Bacillus subtilis (H17 vs M45), Assay Type: Rec-assay, spot test, DNA effects (bacterial DNA repair), Assay Code: REWT, Evaluation Type: Evaluation A (Pre-1980)) was “no conclusion” and the mutagenic call (Species/Cell Type: Drosophila melanogaster, Assay Type: Sex-linked recessive lethal gene mutation, Assay Code: SRLT, Evaluation Type: Evaluation A (Pre-1980)) was “no conclusion”. The mutagenic call (Species/Cell Type: Escherichia coli WP2 UVRA, Assay Type: Tryptophan reverse gene mutation, Assay Code: WPU-*, Activation: With metabolic activation, Evaluation Type: Evaluation A (Pre-1980)) was “inactive; negative”, the mutagenic call [1] was “no conclusion” and the mutagenic call (Species/Cell Type: Human diploid fibroblasts, Assay Type: Unscheduled DNA synthesis (UDS) in vitro, DNA effects, Assay Code: UDH-, Evaluation Type: Evaluation A (Pre-1980)) was “inactive; negative”. For the same molecule, the mutagenic call (Species/Cell Type: Human lymphocytes, Assay Type: Sister-chromatid exchange (SCE) in vitro, Assay Code: SCL+D, Dose Response: With dose response, Evaluation Type: Evaluation B (Post-1980)) was “active; positive”, the mutagenic call (Species/Cell Type: Human, Assay Type: Sister-chromatid exchange (SCE) in vitro, Assay Code: SC1+D, Dose Response: With dose response, Evaluation Type: Evaluation B (Post-1980)) was “active; positive” and the mutagenic call (Species/Cell Type: Nonhuman, Assay Type: Sister-chromatid exchange (SCE) in vitro, Assay Code: SC2+D, Dose Response: With dose response, Evaluation Type: Evaluation B (Post-1980)) was “active; positive”. The mutagenic call [2] was “inactive; negative” and the mutagenic call (Species/Cell Type: Salmonella typhimurium (one or more of the five standard strains: TA98, TA100, TA1535, TA1537, and TA1538), Assay Type: Histidine reverse gene mutation, Ames assay, Assay Code: SALT, Evaluation Type: Evaluation A (Pre-1980)) was “no conclusion”.
With CCCN(CCC)S(=O)(=O)c1ccc(C(=O)O)cc1 the mutagenic call (Species/Cell Type: Saccharomyces cerevisiae, Assay Type: Mitotic recombination or gene conversion, Assay Code: YEC-*, Activation: With metabolic activation, Evaluation Type: Evaluation A (Pre-1980)) was “inactive; negative”.
In the case of Cc1ccc(C2CO2)cc1C (configuration not stated), the mutagenic call (Species/Cell Type: Escherichia coli WP2, Assay Type: Tryptophan reverse gene mutation, Assay Code: WP2+D, Dose Response: With dose response, Evaluation Type: Evaluation A (Pre-1980)) is reported as “active; positive” and the mutagenic call (Species/Cell Type: Escherichia coli WP2 UVRA, Assay Type: Tryptophan reverse gene mutation, Assay Code: WPU+D, Dose Response: With dose response, Evaluation Type: Evaluation A (Pre-1980)) is reported as “active; positive”.
In the case of c1ccc2c(c1)-c1cc3ccccc3cc1[C@H]1O[C@@H]21, the mutagenic call (Species/Cell Type: Chinese hamster lung (V79) cells, Assay Type: Forward gene mutation at the HPRT or ouabain locus, Assay Code: V79+, Evaluation Type: Evaluation A (Pre-1980)) is reported as “active; positive”, the mutagenic call (Species/Cell Type: Drosophila melanogaster, Assay Type: Sex-linked recessive lethal gene mutation, Assay Code: SRL+, Evaluation Type: Evaluation A (Pre-1980)) is reported as “active; positive” and the mutagenic call (Species/Cell Type: Human diploid fibroblasts, Assay Type: Unscheduled DNA synthesis (UDS) in vitro, DNA effects, Assay Code: UDH+D, Dose Response: With dose response, Evaluation Type: Evaluation A (Pre-1980)) is reported as “active; positive”. For the same molecule, the mutagenic call (Species/Cell Type: Mouse prostate cells, Assay Type: Cell transformation, Assay Code: CTM+, Evaluation Type: Evaluation A (Pre-1980)) was “active; positive”, the call [3] was “active; positive” and the mutagenic call [4] was “active; positive”. The mutagenic call (Species/Cell Type: Salmonella typhimurium (one or more of the five standard strains: TA98, TA100, TA1535, TA1537, and TA1538), Assay Type: Histidine reverse gene mutation, Ames assay, Assay Code: SAL+, Evaluation Type: Evaluation A (Pre-1980)) was “active; positive” and the mutagenic call [5] was “active; positive”.
In the case of c1ccc2nccnc2c1, the mutagenic call (Species/Cell Type: Mouse, Sex: Male, Assay Type: Sperm morphology, Assay Code: SPI-, Evaluation Type: Evaluation A (Pre-1980)) is reported as “inactive; negative”.
With C/C=C/c1ccc(O)c(OC)c1 the mutagenic call (Species/Cell Type: Human lymphocytes, Assay Type: Sister-chromatid exchange (SCE) in vitro, Assay Code: SCL+, Evaluation Type: Evaluation B (Post-1980)) was “active; positive”.
[Cl][Sn]([Cl])([Cl])[Cl] was tested, and the mutagenic call (Species/Cell Type: Bacillus subtilis (H17 vs M45), Assay Type: Rec-assay, spot test, DNA effects (bacterial DNA repair), Assay Code: REW-, Evaluation Type: Evaluation A (Pre-1980)) was “inactive; negative”.
For Nc1ccc(N=Nc2ccccc2)cc1, the mutagenic call (Species/Cell Type: Escherichia coli polA (W3110 vs P3478), Assay Type: Rec-assay, DNA effects (bacterial DNA repair), Assay Code: RE2-, Evaluation Type: Evaluation A (Pre-1980)) was “inactive; negative”, the mutagenic call [1] was “no conclusion” and the mutagenic call (Species/Cell Type: Fischer rat embryo (RLV/1706) cells, Assay Type: Cell transformation, viral enhanced, Assay Code: CTR-, Evaluation Type: Evaluation A (Pre-1980)) was “inactive; negative”. The mutagenic call (Species/Cell Type: Mouse embryo (AKR/ME) cells, Assay Type: Cell transformation, Assay Code: CTK-, Evaluation Type: Evaluation A (Pre-1980)) was “inactive; negative”, the call [3] was “active; positive” and the mutagenic call [4] was “active; positive”. For the same molecule, the mutagenic call (Species/Cell Type: Nonhuman, Assay Type: Sister-chromatid exchange (SCE) in vivo, Assay Code: SC3+, Evaluation Type: Evaluation B (Post-1980)) was “active; positive”, the mutagenic call (Species/Cell Type: Rat primary hepatocytes, Assay Type: Unscheduled DNA synthesis (UDS) in vitro, DNA effects, Assay Code: UDP+, Evaluation Type: Evaluation A (Pre-1980)) was “active; positive” and the mutagenic call [2] was “inactive; negative”. The mutagenic call (Species/Cell Type: Salmonella typhimurium (one or more of the five standard strains: TA98, TA100, TA1535, TA1537, and TA1538), Assay Type: Histidine reverse gene mutation, Ames assay, Assay Code: SAL+*, Activation: With metabolic activation, Evaluation Type: Evaluation A (Pre-1980)) was “active; positive”, the mutagenic call (Species/Cell Type: Salmonella typhimurium, Assay Type: Forward and reverse gene mutation, host-mediated assay, Assay Code: HMA+, Evaluation Type: Evaluation A (Pre-1980)) was “active; positive” and the mutagenic call [5] was “active; positive”.
